Data reported in US7388017B2, “Inhibitors of serine proteases, particularly hepatitis C virus NS3 protease” (Vertex Pharmaceuticals Incorporated, priority 1996, dated 2008).
Starred links: 1 amine or outer side, 2 acyl side, 3 side chain; linkers in the order of their positions; H or OH if unused. Non-standard residues stand in square brackets, D forms with d. Residues, ends and D or L forms follow the SMILES beside them. Groups on a side chain read outwards from the residue. *: point of attachment. CH2(1-naphthyl) = c1ccc2c(C*)cccc2c1; Benzyl(3,4-Cl2) = Clc1ccc(C*)cc1Cl; Pyrazinecarbonyl = O=C(c1cnccn1)*; X26 = Clc1ccc(-c2ncc(C*)s2)cc1; X35 = Cc1noc(C)c1-c1nc(C*)no1; X36 = c1ccc(-c2ccc(C*)cc2)cc1; Hyp = O=C(O)[CH]1C[CH](O)CN1; X25 = c1ccc(-c2nc(C*)no2)cc1; X5 = c1ccc(Oc2cccc(C*)c2)cc1; X11 = c1ccc(-c2ccccc2C*)cc1; X2 = COc1ccccc1-c1nc(C*)no1; X21 = FC(F)(F)Oc1cccc(C*)c1; X27 = Fc1cc2c(c(C*)c1)OCOC2; X7 = O=C(c1ccc(Cl)c(Cl)c1)*; X20 = FC(F)(F)c1cccc(C*)c1; X24 = FC(F)(F)c1ccc(C*)cc1; X4 = FC(F)(F)Oc1ccc(C*)cc1; Isovaleryl = CC(C)CC(=O)*; X15 = Clc1cc2c(cc1C*)OCO2; X31 = Clc1ccc2scc(C*)c2c1; X40 = CC(C)(C)c1nc(C*)no1; X10 = c1ccc2cc(C*)ccc2c1; X32 = Clc1ccc(N*)c(Cl)c1; Abu = CC[CH](N)C(=O)O; X22 = N#Cc1cccc(C*)c1; X33 = N#Cc1ccc(C*)cc1; CO = O=C([*:1])[*:2]; X29 = Fc1ccc(C*)cc1F; Bz = O=C(c1ccccc1)*; X1 = Cc1noc(C)c1C*

target: T1, HCV NS3 protease (Hepatitis C virus genotype 1a, UniProt P27958); assay: Enzyme inhibition of HCV NS3 serine protease (cleavage of peptide substrate / EDVV AbuC-p-nitroanilide, with or without NS4A); format: biochemical; conditions: Enzyme inhibition data; Ki from rate vs [inhibitor] plots, Morrison tight binding competitive inhibition fit; 30 C, pH 7.8; read-out: Ki
T1 construct: more particularly HCV NS3 proteases
Method: Cleavage reactions were quenched by the addition of an equal volume of a mixture of 10% TFA:acetonitrile (1:1) and activity was assessed on a reversed phase HPLC column (Rainin C18 Microsorb-MV, […], 4.6×250 mm; 0-50% acetonitrile, 0.1% TFA@ 3.33% min) using a Hewlett Packard 1050 instrument with auto-injection and diode array detection at 210 nm and 280 nm (where appropriate). Peptide elution fragments were collected and identified by mass spectrometry and N-terminal sequence analysis. Fragment identity and concentration was further verified by authentic, synthesized products. Initial rates of cleavage were determined at <20% substrate conversion and catalytic parameters were determined assuming Michaelis-Menten kinetics using the MultiFit program (Day Computing, Cambridge, Mass.).
Spectrophotometric assays were run in a 96-well microtiter plate at 30 C, using a SpectraMax 250 reader (Molecular Devices, Sunnyvale, Calif.) with kinetic capability. Cleavage of EDVV AbuC-p-nitroanilide (5A-pNA) substrate was performed with or without […] in the same buffer used for HPLC assays at 30 C, and pNA release was monitored at 405 nm. The extinction-coefficient of p-nitroaniline is independent of pH at values of 5.5. and above [Tuppy, H., et al., Hoppe-Seyler's Z. Physiol. Chem., 329, pp. 278-288 (1962)]; Raybuck and Luong, unpublished observations).
Kinetic constants for the rapid equilibrium ordered bisubstrate reaction were determined from rate vs [4A], [EDVV AbuC-pNA] data by non-linear least squares fitting to equation 1 [Morrison, J. F. Biochim. Biophys. Acta, 185, pp. 269-286 (1969)] as described in the text. Kii and Kis values for peptidyl inhibitors were determined from rate vs [inhibitor], [substrate] data and fitting to the equation for mixed inhibition: rate=Vmax[S]/{Km(1+[I]/Kis)+[S](1+[I]/Kii)} The commercial program KinetAsyst (StateCollege, Pa.) was used for both procedures. Ki values were calculated from rate vs [inhibitor] plots by a nonlinear least squares fit of the data to the equation of Morrison for tight binding competitive inhibition [Morrison, J. F. Biochim. Biophys. Acta, 185, pp. 269-286 (1969)]. The KineTic program (BioKin Ltd) was used for this procedure.
Ki values are expressed in μM. Category “A” indicates <1 μM inhibition; category “B” indicates 1-100 μM inhibition; category “C” indicates >100 μM.

T1 sequence (P27958 1027-1208): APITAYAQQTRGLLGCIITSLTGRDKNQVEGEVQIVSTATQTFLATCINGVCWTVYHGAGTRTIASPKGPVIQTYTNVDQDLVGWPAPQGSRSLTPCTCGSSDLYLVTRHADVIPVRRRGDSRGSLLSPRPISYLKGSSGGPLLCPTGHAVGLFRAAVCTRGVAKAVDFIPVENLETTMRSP

Compound	Ki [µM]
CCC(C=O)NC(=O)C1CC(OCc2cccc(Oc3ccccc3)c2)CN1C(=O)C(NC(=O)C(NC(=O)c1cnccn1)C(C)C)C(C)C (centres unmarked) [Compound 1] (Pyrazinecarbonyl-VV[Hyp](X5)[Abu]-aldehyde; configuration not given here)	1 to 100
CCC(C=O)NC(=O)C1CC(OCc2ccc(-c3ccccc3)cc2)CN1C(=O)C(NC(=O)C(NC(=O)c1cnccn1)C(C)C)C(C)C (centres unmarked) [Compound 2] (Pyrazinecarbonyl-VV[Hyp](X36)[Abu]-aldehyde; configuration not given here)	1 to 100
CCC(C=O)NC(=O)C1CC(OCc2noc(-c3ccccc3)n2)CN1C(=O)C(NC(=O)C(NC(=O)c1cnccn1)C(C)C)C(C)C (centres unmarked) [Compound 3] (Pyrazinecarbonyl-VV[Hyp](X25)[Abu]-aldehyde; configuration not given here)	1 to 100
CCC(C=O)NC(=O)C1CC(OCc2noc(-c3c(C)noc3C)n2)CN1C(=O)C(NC(=O)C(NC(=O)c1cnccn1)C(C)C)C(C)C (centres unmarked) [Compound 5] (Pyrazinecarbonyl-VV[Hyp](X35)[Abu]-aldehyde; configuration not given here)	1 to 100
CCC(C=O)NC(=O)C1CC(OCc2noc(C(C)(C)C)n2)CN1C(=O)C(NC(=O)C(NC(=O)c1cnccn1)C(C)C)C(C)C (centres unmarked) [Compound 6] (Pyrazinecarbonyl-VV[Hyp](X40)[Abu]-aldehyde; configuration not given here)	1 to 100
CCC(C=O)NC(=O)C1CC(OCc2cc(F)cc3c2OCOC3)CN1C(=O)C(NC(=O)C(NC(=O)c1cnccn1)C(C)C)C(C)C (centres unmarked) [Compound 8] (Pyrazinecarbonyl-VV[Hyp](X27)[Abu]-aldehyde; configuration not given here)	1 to 100
CCC(C=O)NC(=O)C1CC(OCc2cccc(OC(F)(F)F)c2)CN1C(=O)C(NC(=O)C(NC(=O)c1cnccn1)C(C)C)C(C)C (centres unmarked) [Compound 9] (Pyrazinecarbonyl-VV[Hyp](X21)[Abu]-aldehyde; configuration not given here)	1 to 100
CCC(C=O)NC(=O)C1CC(OCc2ccc(Cl)c(Cl)c2)CN1C(=O)C(NC(=O)C(NC(=O)c1cnccn1)C(C)C)C(C)C (centres unmarked) [Compound 10] (Pyrazinecarbonyl-VV[Hyp](Benzyl(3,4-Cl2))[Abu]-aldehyde; configuration not given here)	1 to 100
CCC(C=O)NC(=O)C1CC(OCc2ccccc2-c2ccccc2)CN1C(=O)C(NC(=O)C(NC(=O)c1cnccn1)C(C)C)C(C)C (centres unmarked) [Compound 11] (Pyrazinecarbonyl-VV[Hyp](X11)[Abu]-aldehyde; configuration not given here)	1 to 100
CCC(C=O)NC(=O)C1CC(OCc2c(C)noc2C)CN1C(=O)C(NC(=O)C(NC(=O)c1cnccn1)C(C)C)C(C)C (centres unmarked) [Compound 12] (Pyrazinecarbonyl-VV[Hyp](X1)[Abu]-aldehyde; configuration not given here)	1 to 100
CCC(C=O)NC(=O)C1CC(OCc2cc3c(cc2Cl)OCO3)CN1C(=O)C(NC(=O)C(NC(=O)c1cnccn1)C(C)C)C(C)C (centres unmarked) [Compound 13] (Pyrazinecarbonyl-VV[Hyp](X15)[Abu]-aldehyde; configuration not given here)	1 to 100
CCC(C=O)NC(=O)C1CC(OCc2noc(-c3ccccc3OC)n2)CN1C(=O)C(NC(=O)C(NC(=O)c1cnccn1)C(C)C)C(C)C (centres unmarked) [Compound 14] (Pyrazinecarbonyl-VV[Hyp](X2)[Abu]-aldehyde; configuration not given here)	1 to 100
CCC(C=O)NC(=O)C1CC(OCc2ccc(C#N)cc2)CN1C(=O)C(NC(=O)C(NC(=O)c1cnccn1)C(C)C)C(C)C (centres unmarked) [Compound 15] (Pyrazinecarbonyl-VV[Hyp](X33)[Abu]-aldehyde; configuration not given here)	1 to 100
CCC(C=O)NC(=O)C1CC(OCc2cccc(C(F)(F)F)c2)CN1C(=O)C(NC(=O)C(NC(=O)c1cnccn1)C(C)C)C(C)C (centres unmarked) [Compound 16] (Pyrazinecarbonyl-VV[Hyp](X20)[Abu]-aldehyde; configuration not given here)	1 to 100
CCC(C=O)NC(=O)C1CC(OCc2ccc(C(F)(F)F)cc2)CN1C(=O)C(NC(=O)C(NC(=O)c1cnccn1)C(C)C)C(C)C (centres unmarked) [Compound 17] (Pyrazinecarbonyl-VV[Hyp](X24)[Abu]-aldehyde; configuration not given here)	1 to 100
CCC(C=O)NC(=O)C1CC(OCc2ccc(OC(F)(F)F)cc2)CN1C(=O)C(NC(=O)C(NC(=O)c1cnccn1)C(C)C)C(C)C (centres unmarked) [Compound 18] (Pyrazinecarbonyl-VV[Hyp](X4)[Abu]-aldehyde; configuration not given here)	1 to 100
CCC(C=O)NC(=O)C1CC(OCc2ccc3ccccc3c2)CN1C(=O)C(NC(=O)C(NC(=O)c1cnccn1)C(C)C)C(C)C (centres unmarked) [Compound 20] (Pyrazinecarbonyl-VV[Hyp](X10)[Abu]-aldehyde; configuration not given here)	1 to 100
CCC(C=O)NC(=O)C1CC(OCc2cccc(C#N)c2)CN1C(=O)C(NC(=O)C(NC(=O)c1cnccn1)C(C)C)C(C)C (centres unmarked) [Compound 21] (Pyrazinecarbonyl-VV[Hyp](X22)[Abu]-aldehyde; configuration not given here)	1 to 100
CCC(C=O)NC(=O)C1CC(OCc2ccc(F)c(F)c2)CN1C(=O)C(NC(=O)C(NC(=O)c1cnccn1)C(C)C)C(C)C (centres unmarked) [Compound 22] (Pyrazinecarbonyl-VV[Hyp](X29)[Abu]-aldehyde; configuration not given here)	1 to 100
CCC(C=O)NC(=O)C1CC(OCc2csc3ccc(Cl)cc23)CN1C(=O)C(NC(=O)C(NC(=O)c1cnccn1)C(C)C)C(C)C (centres unmarked) [Compound 23] (Pyrazinecarbonyl-VV[Hyp](X31)[Abu]-aldehyde; configuration not given here)	1 to 100
CCC(C=O)NC(=O)C1CC(OCc2cnc(-c3ccc(Cl)cc3)s2)CN1C(=O)C(NC(=O)C(NC(=O)c1cnccn1)C(C)C)C(C)C (centres unmarked) [Compound 24] (Pyrazinecarbonyl-VV[Hyp](X26)[Abu]-aldehyde; configuration not given here)	1 to 100
CCC(C=O)NC(=O)C1CC(OCc2cccc3ccccc23)CN1C(=O)C(NC(=O)C(NC(=O)c1cnccn1)C(C)C)C(C)C (centres unmarked) [Compound 26] (Pyrazinecarbonyl-VV[Hyp](CH2(1-naphthyl))[Abu]-aldehyde; configuration not given here)	1 to 100
CCC(C=O)NC(=O)C1CC(OC(=O)c2ccc(Cl)c(Cl)c2)CN1C(=O)C(NC(=O)C(NC(=O)c1cnccn1)C(C)C)C(C)C (centres unmarked) [Compound 27] (Pyrazinecarbonyl-VV[Hyp](X7)[Abu]-aldehyde; configuration not given here)	1 to 100
CCC(C=O)NC(=O)C1CC(OC(=O)c2ccccc2)CN1C(=O)C(NC(=O)C(NC(=O)c1cnccn1)C(C)C)C(C)C (centres unmarked) [Compound 28] (Pyrazinecarbonyl-VV[Hyp](Bz)[Abu]-aldehyde; configuration not given here)	1 to 100
CCC(C=O)NC(=O)C1CC(OC(=O)CC(C)C)CN1C(=O)C(NC(=O)C(NC(=O)c1cnccn1)C(C)C)C(C)C (centres unmarked) [Compound 29] (Pyrazinecarbonyl-VV[Hyp](Isovaleryl)[Abu]-aldehyde; configuration not given here)	1 to 100
CCC(C=O)NC(=O)C1CC(OC(=O)Nc2ccc(Cl)cc2Cl)CN1C(=O)C(NC(=O)C(NC(=O)c1cnccn1)C(C)C)C(C)C (centres unmarked) [Compound 30] (Pyrazinecarbonyl-VV[Hyp]([CO-X32])[Abu]-aldehyde; configuration not given here)	1 to 100
